Results on 41 compounds are retold here after patent publication US20250101436A1, “APTAMERS AND SMALL MOLECULE LIGANDS” (MeiraGTx UK II Limited, priority 2021, published 2025).

Each structure is given as a SMILES string.

One series relates to N5-12G6 riboswitch. Briefly: Firefly luciferase assay, N5-12G6 riboswitch in HEK293 cells. The following applies: 12G6 riboswitch, luciferase, HEK293, 2 μM.
In the case of `Fc1cc(CNc2cncc(Cl)c2N2CCNCC2)cc2nccnc12` [compound 077, 5-chloro-N-((8-fluoroquinoxalin-6-yl)methyl)-4-(piperazin-1-yl)pyridin-3-amine], the “Fold induction 2 μM (HEK)” value is recorded as 43.5 fold.

Still in this series, the particulars now being: Homo sapiens, HEK293, read-out: Fold induction 2 μM (HEK), 12G6 riboswitch, luciferase, HEK293, 2 μM.
Take `Cc1c(CNc2cnccc2N2CCNCC2)cc2nccnc2c1C` [compound 070, N-((7,8-dimethylquinoxalin-6-yl)methyl)-4-(piperazin-1-yl)pyridin-3-amine]: the fold induction at 2 µM is 2.9.

On to `COc1cc(CNc2cnccc2N2CCNCC2)cc2nccnc12` [compound 071, N-((8-methoxyquinoxalin-6-yl)methyl)-4-(piperazin-1-yl)pyridin-3-amine], for which the fold induction at 2 µM stood at 6.1.

Regarding `COc1cc2nccnc2cc1CNc1cnccc1N1CCNCC1` [compound 072, N-((7-methoxyquinoxalin-6-yl)methyl)-4-(piperazin-1-yl)pyridin-3-amine], the fold induction at 2 µM stood at 19.6.

In the case of `Fc1cncc(NCc2ccc3nccnc3c2)c1N1CCNCC1` [compound 073, 5-fluoro-4-(piperazin-1-yl)-N-(quinoxalin-6-ylmethyl)pyridin-3-amine], the fold induction at 2 µM worked out at 43.9.

In the case of `Brc1cncc(NCc2ccc3nccnc3c2)c1N1CCNCC1` [compound 074, 5-bromo-4-(piperazin-1-yl)-N-(quinoxalin-6-ylmethyl)pyridin-3-amine], the fold induction at 2 µM was found to be 48.6.

As for `COc1cncc(NCc2ccc3nccnc3c2)c1N1CCNCC1` [compound 075, 5-methoxy-4-(piperazin-1-yl)-N-(quinoxalin-6-ylmethyl)pyridin-3-amine], the fold induction at 2 µM was 18.6.

In the case of `FC(F)c1cncc(NCc2ccc3nccnc3c2)c1N1CCNCC1` [compound 076, 5-(difluoromethyl)-4-(piperazin-1-yl)-N-(quinoxalin-6-ylmethyl)pyridin-3-amine], the fold induction at 2 µM came to 117.

With `Fc1c(CNc2cncc(Cl)c2N2CCNCC2)ccc2nccnc12` [compound 078, 5-chloro-N-((5-fluoroquinoxalin-6-yl)methyl)-4-(piperazin-1-yl)pyridin-3-amine], the fold induction at 2 µM worked out at 6.1.

In the case of `Fc1cncc(NCc2ccc3nccnc3c2F)c1N1CCNCC1` [compound 079, 5-fluoro-N-((5-fluoroquinoxalin-6-yl)methyl)-4-(piperazin-1-yl)pyridin-3-amine], the fold induction at 2 µM came to 4.4.

Regarding `Fc1cncc(NCc2cc(F)c3nccnc3c2)c1N1CCNCC1` [compound 080, 5-fluoro-N-((8-fluoroquinoxalin-6-yl)methyl)-4-(piperazin-1-yl)pyridin-3-amine], the fold induction at 2 µM was determined as 31.2.

Consider `Fc1cncc(NCc2cc(Cl)c3nccnc3c2)c1N1CCNCC1` [compound 081, N-((8-chloroquinoxalin-6-yl)methyl)-5-fluoro-4-(piperazin-1-yl)pyridin-3-amine], for which the fold induction at 2 µM stood at 3.9.

As to `Fc1cc2nccnc2cc1CNc1cncc(F)c1N1CCNCC1` [compound 082, 5-fluoro-N-((7-fluoroquinoxalin-6-yl)methyl)-4-(piperazin-1-yl)pyridin-3-amine], the fold induction at 2 µM is 24.7.

With `Fc1cncc(NCc2cc3nccnc3cc2Cl)c1N1CCNCC1` [compound 083, N-((7-chloroquinoxalin-6-yl)methyl)-5-fluoro-4-(piperazin-1-yl)pyridin-3-amine], the fold induction at 2 µM is 12.8.

For the compound `Cc1cncc(NCc2cc(F)c3nccnc3c2)c1N1CCNCC1` [compound 084, N-((8-fluoroquinoxalin-6-yl)methyl)-5-methyl-4-(piperazin-1-yl)pyridin-3-amine], the fold induction at 2 µM turned out to be 66.4.

Regarding `Cc1cncc(NCc2cc(Cl)c3nccnc3c2)c1N1CCNCC1` [compound 085, N-((8-chloroquinoxalin-6-yl)methyl)-5-methyl-4-(piperazin-1-yl)pyridin-3-amine], the fold induction at 2 µM is 5.4.

Consider `Cc1cncc(NCc2cc3nccnc3cc2F)c1N1CCNCC1` [compound 086, N-((7-fluoroquinoxalin-6-yl)methyl)-5-methyl-4-(piperazin-1-yl)pyridin-3-amine], for which the fold induction at 2 µM was found to be 17.3.

In the case of `Cc1cncc(NCc2cc3nccnc3cc2Cl)c1N1CCNCC1` [compound 087, N-((7-chloroquinoxalin-6-yl)methyl)-5-methyl-4-(piperazin-1-yl)pyridin-3-amine], the fold induction at 2 µM worked out at 20.9.

Consider `Fc1cc(CNc2cnccc2N2CCCNCC2)cc2nccnc12` [compound 088, 4-(1,4-diazepan-1-yl)-N-((8-fluoroquinoxalin-6-yl)methyl)pyridin-3-amine], for which the fold induction at 2 µM was determined as 2.6.

Consider `Clc1cc(CNc2cnccc2N2CCCNCC2)cc2nccnc12` [compound 089, N-((8-chloroquinoxalin-6-yl)methyl)-4-(1,4-diazepan-1-yl)pyridin-3-amine], for which the fold induction at 2 µM was 4.8.

As for `Fc1cc2nccnc2cc1CNc1cnccc1N1CCCNCC1` [compound 090, 4-(1,4-diazepan-1-yl)-N-((7-fluoroquinoxalin-6-yl)methyl)pyridin-3-amine], the fold induction at 2 µM was found to be 15.

Turning to `Clc1cc2nccnc2cc1CNc1cnccc1N1CCCNCC1` [compound 091, N-((7-chloroquinoxalin-6-yl)methyl)-4-(1,4-diazepan-1-yl)pyridin-3-amine], the fold induction at 2 µM is 28.4.

Take `Fc1cncc(NCc2ccc3nccnc3c2)c1N1CCCNCC1` [compound 092, 4-(1,4-diazepan-1-yl)-5-fluoro-N-(quinoxalin-6-ylmethyl)pyridin-3-amine]: the fold induction at 2 µM was found to be 34.9.

As to `Clc1cncc(NCc2ccc3nccnc3c2)c1N1CCCNCC1` [compound 093, 5-chloro-4-(1,4-diazepan-1-yl)-N-(quinoxalin-6-ylmethyl)pyridin-3-amine], the fold induction at 2 µM was found to be 30.7.

Take `Cc1cncc(NCc2ccc3nccnc3c2)c1N1CCCNCC1` [compound 094, 4-(1,4-diazepan-1-yl)-5-methyl-N-(quinoxalin-6-ylmethyl)pyridin-3-amine]: the fold induction at 2 µM stood at 35.1.

Take `Fc1cncc(NCc2cc(F)c3nccnc3c2)c1N1CCCNCC1` [compound 095, 4-(1,4-diazepan-1-yl)-5-fluoro-N-((8-fluoroquinoxalin-6-yl)methyl)pyridin-3-amine]: the fold induction at 2 µM stood at 8.9.

Consider `Fc1cncc(NCc2cc3nccnc3cc2Cl)c1N1CCCNCC1` [compound 096, N-((7-chloroquinoxalin-6-yl)methyl)-4-(1,4-diazepan-1-yl)-5-fluoropyridin-3-amine], for which the fold induction at 2 µM stood at 16.2.

On to `Clc1cc2nccnc2cc1CNc1cnccc1N1C[C@@H]2C[C@H]1CN2` [compound 097, 4-((1S,4S)-2,5-diazabicyclo[2.2.1]heptan-2-yl)-N-((7-chloroquinoxalin-6-yl)methyl)pyridin-3-amine], for which the fold induction at 2 µM is 2.6.

Regarding `Clc1cc2nccnc2cc1CNc1cnccc1N1C[C@H]2C[C@@H]1CN2` [compound 098, 4-((1R,4R)-2,5-diazabicyclo[2.2.1]heptan-2-yl)-N-((7-chloroquinoxalin-6-yl)methyl)pyridin-3-amine], the fold induction at 2 µM came to 4.5.

For the compound `Clc1cc2nccnc2cc1CNc1cnccc1N1CC2CNCC2C1` (centres unmarked) [compound 099, N-((7-chloroquinoxalin-6-yl)methyl)-4-(hexahydropyrrolo[3,4-c]pyrrol-2(1H)-yl)pyridin-3-amine], the fold induction at 2 µM was 8.2.

With `C[C@@H]1CNCCN1c1ccncc1NCc1cc2nccnc2cc1F` [compound 100, (R)—N-((7-fluoroquinoxalin-6-yl)methyl)-4-(2-methylpiperazin-1-yl)pyridin-3-amine], the fold induction at 2 µM stood at 3.5.

`C[C@H]1CN(c2ccncc2NCc2cc(Cl)c3nccnc3c2)CCN1` [compound 101, (S)—N-((8-chloroquinoxalin-6-yl)methyl)-4-(3-methylpiperazin-1-yl)pyridin-3-amine]: the fold induction at 2 µM worked out at 2.2.

Consider `C[C@H]1CN(c2ccncc2NCc2cc3nccnc3cc2F)CCN1` [compound 102, (S)—N-((7-fluoroquinoxalin-6-yl)methyl)-4-(3-methylpiperazin-1-yl)pyridin-3-amine], for which the fold induction at 2 µM was 13.6.

As to `C[C@H]1CN(c2c(F)cncc2NCc2ccc3nccnc3c2)CCN1` [compound 103, (S)-5-fluoro-4-(3-methylpiperazin-1-yl)-N-(quinoxalin-6-ylmethyl)pyridin-3-amine], the fold induction at 2 µM amounted to 23.3.

On to `Cc1cncc(NCc2ccc3nccnc3c2)c1N1CCN[C@@H](C)C1` [compound 104, (S)-5-methyl-4-(3-methylpiperazin-1-yl)-N-(quinoxalin-6-ylmethyl)pyridin-3-amine], for which the fold induction at 2 µM came out at 33.3.

For `Fc1cc(CNc2cnccc2O[C@@H]2CCNC2)cc2nccnc12` [compound 105, (R)—N-((8-fluoroquinoxalin-6-yl)methyl)-4-(pyrrolidin-3-yloxy)pyridin-3-amine], the fold induction at 2 µM turned out to be 37.7.

Turning to `Clc1cc(CNc2cnccc2O[C@@H]2CCNC2)cc2nccnc12` [compound 106, (R)—N-((8-chloroquinoxalin-6-yl)methyl)-4-(pyrrolidin-3-yloxy)pyridin-3-amine], the fold induction at 2 µM is 22.2.

`Fc1cc2nccnc2cc1CNc1cnccc1O[C@@H]1CCNC1` [compound 107, (R)—N-((7-fluoroquinoxalin-6-yl)methyl)-4-(pyrrolidin-3-yloxy)pyridin-3-amine]: the fold induction at 2 µM is 48.7.

On to `Clc1cc2nccnc2cc1CNc1cnccc1O[C@@H]1CCNC1` [compound 108, (R)—N-((7-chloroquinoxalin-6-yl)methyl)-4-(pyrrolidin-3-yloxy)pyridin-3-amine], for which the fold induction at 2 µM was 37.5.

Take `Fc1cncc(NCc2ccc3nccnc3c2)c1O[C@@H]1CCNC1` [compound 109, (R)-5-fluoro-4-(pyrrolidin-3-yloxy)-N-(quinoxalin-6-ylmethyl)pyridin-3-amine]: the fold induction at 2 µM was 54.6.

Regarding `Clc1cncc(NCc2ccc3nccnc3c2)c1O[C@@H]1CCNC1` [compound 110, (R)-5-chloro-4-(pyrrolidin-3-yloxy)-N-(quinoxalin-6-ylmethyl)pyridin-3-amine], the fold induction at 2 µM stood at 43.1.
